Reference: patent publication US10632064B2, “Topical regional neuro affective therapy with cannabinoid combination products” (Afgin Pharma, LLC, priority 2015, dated 2020)

Legend:
[1] = system: acute paranoid schizophrenia; conditions: after 2 weeks; cited from earlier work
[2] = system: human patient having a remote head injury, s/p 4 craniotomies and intractable seizures; assay: Example 7: topical cannabidiol 40 mg at the BONATH, intractable seizures, EEG; type: in vivo; conditions: 25 mg milnacipran topical nuchal after cannabidiol 40 mg
Description: The efficacy of a topical cannabidiol formulation was studied in a human patient having a remote head injury, s/p 4 craniotomies and intractable seizures. The patient was treated with cannabidiol 40 mg applied to the BONATH in a topical formulation. There was attenuation of associated focal EEG abnormalities.

In the case of `CCN1CCCC1CNC(=O)c1cc(S(=O)(=O)CC)c(N)cc1OC` (centres unmarked) [amisulpride], the psychotic symptoms [1] is given as “significant decrease in psychotic symptoms”.

With `CCN(CC)C(=O)C1(c2ccccc2)CC1CN` (centres unmarked) [milnacipran] the “EEG after further topical nuchal treatment” value [2] was “further attenuated”.
